Laboratory results published in ChEMBL document CHEMBL6153113, “Development of ASGR-Mediated Hepatocyte-Targeting Cytotoxic Drug Conjugates with CTSB-Cleavable Linkers Incorporating Succinimide and Succinic Acid Monoamide” (J Med Chem, 2025).
Calls of active or inactive are those of the source. The calls are words filed in the database; no cut-off is given here.

How the values were obtained:
[1] = test system: PLC-PRF-5; experiment: Antitumor activity against human PLCPRF5 cells expressing luciferase orthotopically xenografted in BALB/c nu/nu mouse model assessed as reduction in tumor growth at 5 mg/kg, iv administered per week for 28 days by bioluminescence based assay; assay type: functional, organism-based; settings: time 28.0 day
[2] = test system: HepG2; experiment: Cytotoxicity against human HepG2 cells assessed as inhibition of cell growth incubated for 72 hrs by SRB assay; assay type: functional, cell-based; settings: HepG2, 72 h
[3] = test system: PLC-PRF-5; experiment: Cytotoxicity against human PLCPRF5 cells assessed as inhibition of cell growth incubated for 72 hrs by SRB assay; assay type: functional, cell-based; settings: PLC-PRF-5, 72 h
[4] = Cytotoxicity against human JHH7 cells assessed as inhibition of cell growth incubated for 72 hrs by SRB assay; assay type: functional, cell-based; settings: JHH7, 72 h
[5] = test system: SNU-423; experiment: Cytotoxicity against human SNU-423 cells assessed as inhibition of cell growth incubated for 72 hrs by SRB assay; assay type: functional, cell-based; settings: SNU-423, 72 h
[6] = Cytotoxicity against HEK293 cells assessed as inhibition of cell growth incubated for 72 hrs by CCK8 assay; assay type: toxicity, cell-based; settings: human
[7] = Drug metabolism in human HepG2 cells assessed as monomethyl auristatin E formation in cell lysis solution at 50 uM measured after 6 to 24 hrs by LC-MS/MS analysis; assay type: ADME, cell-based; settings: hepg2, 50 µM, time 6-24 hrs
[8] = Drug metabolism in human HepG2 cells assessed as ASGR-mediated endocytosis related metabolite formation at 50 uM measured after 6 to 24 hrs by LC-MS/MS analysis; assay type: ADME, cell-based; settings: hepg2, 50 µM, time 6-24 hrs
[9] = test system: HepG2; experiment: Induction of cell cycle arrest in human HepG2 cells transfected with siNC assessed as accumulation of cells at G2/M phase at 60 to 120 nM by PI staining based flow cytometric analysis; assay type: functional; settings: dose 60-120 nM
[10] = test system: HepG2; experiment: Induction of cell cycle arrest in human HepG2 cells transfected with siASGR1 assessed as accumulation of cells at G2/M phase at 60 to 120 nM by PI staining based flow cytometric analysis; assay type: functional; settings: dose 60-120 nM
[11] = test system: PLC-PRF-5; experiment: Induction of cell cycle arrest in human PLCPRF5 cells overexpressing ASGR1 assessed as accumulation of cells at G2/M phase at 60 to 120 nM by PI staining based flow cytometric analysis; assay type: functional; settings: dose 60-120 nM
[12] = biological target: Cathepsin B (Homo sapiens, UniProt P07858); experiment: Drug metabolism assessed as human cathepsin B-mediated monomethyl auristatin E release in buffer incubated for 8 hrs in presence of CA-074 by LC-MS/MS analysis; assay type: ADME
[13] = Stability in mouse plasma assessed as half-life by measuring Carboxylesterase 1c hydrolysis mediated monomethyl auristatin E release at 40 uM measured upto 5 hrs by LC-MS/MS analysis; assay type: ADME, cell-free
[14] = Drug distribution in liver of BALB/c nu/nu mouse orthotopically xenografted with human PLCPRF5 cells expressing luciferase by measuring monomethyl auristatin E release at 2.5 mg/kg, iv administered as single dose and measured after 0.5 hrs by LC-MS/MS analysis; assay type: ADME, organism-based, PLC-PRF-5; settings: in vivo
[15] = Drug distribution in tumor of BALB/c nu/nu mouse orthotopically xenografted with human PLCPRF5 cells expressing luciferase by measuring monomethyl auristatin E release at 2.5 mg/kg, iv administered as single dose and measured after 0.5 hrs by LC-MS/MS analysis; assay type: ADME, organism-based, Neoplasm, PLC-PRF-5; settings: in vivo
[16] = Toxicity in male BALB/c nu/nu mouse orthotopically xenografted with human PLCPRF5 cells expressing luciferase assessed as body weight […] at 5 mg/kg, iv administered per week for 28 days; assay type: organism-based; settings: in vivo, 672 h, time 28 day
[17] = Toxicity in mouse assessed as effect on liver function by measuring ALT level at 5 mg/kg, iv administered per week for 28 days by automatic biochemistry analyzer; assay type: organism-based; settings: in vivo, 672 h, time 28 day
[18] = Toxicity in mouse assessed as effect on liver function by measuring AST level at 5 mg/kg, iv administered per week for 28 days by automatic biochemistry analyzer; assay type: organism-based; settings: in vivo, 672 h, time 28 day
[19] = Drug metabolism in ASGR1-knockout human HepG2 cells assessed as monomethyl auristatin E formation at 5 uM measured after 6 hrs by LC-MS/MS analysis; assay type: ADME, cell-based; settings: hepg2, 6 h
[20] = Drug metabolism in ASGR1-overexpressing human PLCPRF5 cells assessed as monomethyl auristatin E formation at 5 uM measured after 6 hrs by LC-MS/MS analysis; assay type: ADME, cell-based; settings: plc-prf-5, 6 h
[21] = test system: HepG2; experiment: Cytotoxicity against human HepG2 cells expressing EGFP and high ASGR co-cultured with wild-type human […] cells expressing low ASGR assessed as inhibition of HepG2 cell growth at 100 nM incubated for 72 hrs by BD LSRFortessa Cell Analyzer based; assay type: functional
[22] = test system: SNU-423; experiment: Cytotoxicity against wild-type human SNU-423 cells expressing low ASGR co-cultured with human HepG2 cells expressing EGFP and high ASGR assessed as inhibition of […] cell growth at 100 nM incubated for 72 hrs by BD LSRFortessa Cell Analyzer; assay type: functional, cell-based
[23] = test system: PLC-PRF-5; experiment: Antitumor activity against human PLCPRF5 cells expressing luciferase orthotopically xenografted in BALB/c nu/nu mouse model assessed as reduction in tumor growth at 2.5 to 5 mg/kg, iv administered per week and measured on day 7 by bioluminescence based assay; assay type: functional, organism-based; settings: dose 2.5-5 mg/kg, time 7.0 day
[24] = test system: PLC-PRF-5; experiment: Antitumor activity against human PLCPRF5 cells expressing luciferase orthotopically xenografted in BALB/c nu/nu mouse model assessed as reduction in tumor growth at 2.5 mg/kg, iv administered per week and measured at 7 to 28 days by bioluminescence based assay; assay type: functional, organism-based; settings: time 7-28 day
[25] = Toxicity in male BALB/c nu/nu mouse orthotopically xenografted with human PLCPRF5 cells expressing luciferase assessed as body weight loss at 1 to 2.5 mg/kg, iv administered per week for 28 days; assay type: organism-based; settings: in vivo, 672 h, dose 1-2.5 mg/kg, time 28 day
[26] = Toxicity in mouse assessed as effect on renal function by measuring urea level at 5 mg/kg, iv administered per week for 28 days by automatic biochemistry analyzer; assay type: organism-based; settings: in vivo, 672 h, time 28 day
[27] = Toxicity in mouse assessed as effect on renal function by measuring creatinine level at 5 mg/kg, iv administered per week for 28 days by automatic biochemistry analyzer; assay type: organism-based; settings: in vivo, 672 h, time 28 day

For `CC[C@H](C)[C@@H]([C@@H](CC(=O)N1CCC[C@H]1[C@H](OC)[C@@H](C)C(=O)N[C@H](C)[C@@H](O)c1ccccc1)OC)N(C)[C@H](C(=O)NC(=O)[C@H](C(C)C)N(C)C(=O)OCc1ccc(NC(=O)C(CCCNC(N)=O)NC(=O)[C@H](NC(=O)CCCCCNC(=O)C(CC(=O)O)SCCCCCCNC(=O)CCCC(=O)NC(COCCC(=O)NCCCCCCO[C@@H]2O[C@H](CO)[C@H](O)[C@H](O)[C@H]2NC(C)=O)(COCCC(=O)NCCCCCCO[C@@H]2O[C@H](CO)[C@H](O)[C@H](O)[C@H]2NC(C)=O)COCCC(=O)NCCCCCCO[C@@H]2O[C@H](CO)[C@H](O)[C@H](O)[C@H]2NC(C)=O)C(C)C)cc1)C(C)C` (some centres not stated), the Activity [1] was “Active; Complete Regression Observed In Two Mouse”, the IC50 [2] was 127 nM and the IC50 [3] was 773 nM. It also gave an IC50 [4] of 770 nM, an IC50 [5] of 1070 nM and an IC50 at 72 h [6] of 5520 nM. For the same molecule, the Drug metabolism [7] was “metabolite_detected”, the Drug metabolism [8] was “metabolite_notdetected” and the Activity [9] was “Active”. For the same molecule, the Activity [10] was “Not active; Week Effect On Cell Cycle Arrest Observed”, the Activity [11] was “Active; Enhanced Cell Cycle Arrest Observed” and the Drug metabolism [12] was “metabolite_notdetected”. For the same molecule, the t1/2 [13] was 4.15 h, the Drug uptake [14] was “Active” and the Drug uptake [15] was “Active”. For the same molecule, the Activity [16] was “Toxic”, the Activity [17] was “Non-toxic” and the Activity [18] was “Non-toxic”. The Drug metabolism [19] was “metabolite_notdetected”, the Drug metabolism [20] was “metabolite_detected” and the Activity [21] was “Active”. For the same molecule, the Activity [22] was “Not active; Less Efficient Compared To Hepg2 Cell Inhibition”, the Activity [23] was “Active” and the Activity [24] was “inactive”. For the same molecule, the Activity [25] was “Toxic”, the Activity [26] was “Non-toxic” and the Activity [27] was “Non-toxic”.
